pIC50: −log10 of the molar value. Like-named read-outs stand apart in the source and are kept apart here.

In assay [1] the test system is cholesterol absorption. As to the kind of experiment: Inhibition of cholesterol absorption in rats fed 1% cholesterol:0.5% cholic acid diet. In kind it is in vivo, male Sprague-Dawley rats. As to conditions: po, 336 h, rat, 2 weeks; for response vs control in vivo at 0.01 %: dose .01% of the diet; for response vs control in vivo at 0.003 %: dose .003% of the diet; for response vs control in vivo at 0.03 %: dose .03% of the diet. In outline: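 Male Sprague-Dawley rats (150-170 g) fed 1% cholesterol:0.5% cholic acid diet for 2 weeks with compound at 0.001, 0.003, 0.01 or 0.03% of diet. Serum cholesterol measured enzymatically; liver cholesterol from saponified large-lobe sample after petroleum ether extraction. Liver and serum sterol expressed as percent of untreated controls.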

Assay [2] addresses T1, fatty acyl CoA:cholesterol acyl transferase (ACAT) (Rattus norvegicus, UniProt Q7TQM4).
T1 construct: the enzyme was derived from microsomes isolated from rat intestinal mucosal cells; from tissue; host or cells: rat intestinal mucosal cells, microsomes
T1 sequence (Q7TQM4 1-524): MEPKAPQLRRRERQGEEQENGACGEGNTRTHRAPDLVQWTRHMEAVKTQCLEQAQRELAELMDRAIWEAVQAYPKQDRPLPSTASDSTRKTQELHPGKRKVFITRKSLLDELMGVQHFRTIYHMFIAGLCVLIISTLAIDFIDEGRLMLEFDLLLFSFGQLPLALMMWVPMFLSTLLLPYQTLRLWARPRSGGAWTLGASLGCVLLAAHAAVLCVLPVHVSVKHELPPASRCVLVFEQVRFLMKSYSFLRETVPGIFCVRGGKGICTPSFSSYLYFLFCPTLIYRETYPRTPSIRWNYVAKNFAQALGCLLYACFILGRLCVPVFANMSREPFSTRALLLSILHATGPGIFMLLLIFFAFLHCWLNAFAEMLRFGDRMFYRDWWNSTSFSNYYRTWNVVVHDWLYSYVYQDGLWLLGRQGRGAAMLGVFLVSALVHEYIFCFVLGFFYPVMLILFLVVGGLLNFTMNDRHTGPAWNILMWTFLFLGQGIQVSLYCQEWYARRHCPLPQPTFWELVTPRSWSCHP
As to the kind of experiment: Inhibition of ACAT from microsomes isolated from rat intestinal mucosal cells. Type of assay: biochemical. The procedure: The compounds were tested for their ability to inhibit ACAT according to the following procedure: rat adrenals were homogenized in 0.2M monobasic potassium phosphate buffer, pH 7.4, and centrifuged at 1,000 times gravity for 15 minutes at 5° C. The supernatant, containing the microsomal fraction, served as the source of the cholesterol-esterifying enzyme, fatty acyl CoA:cholesterol acyl transferase (ACAT). A mixture comprising 50 parts of adrenal supernatant, 10 parts of bovine serum albumin (50 mg/ml), 3 parts of test compound (final concentration 5.2 μg/ml), and 500 parts of buffer was preincubated at 37° C. for 10 minutes. After treatment with 20 parts of oleoyl CoA (^14 C-0.4 μCi), the mixture was incubated at 37° C. for 10 minutes. A control mixture, omitting the test compound, was prepared and treated in the same manner. The lipids from the incubation mixture was extracted into an organic solvent and separated by thin-layer chromatography. The cholesteryl ester fraction was counted in a scintillation counter. This procedure is a modification of that described by Hashimoto, et al., Life Scie., 12 (Part II), 1-12 (1973).
The compounds of this invention were tested in vitro at several concentrations for their ability to inhibit the enzyme fatty acyl CoA:cholesterol acyl transferase (ACAT) using the hereinabove described procedure except that the enzyme was derived from microsomes isolated from rat intestinal mucosal cells rather than rat adrenal cells. The results of this test on representative compounds of this invention are given in Table III in terms of IC50 (μM), that concentration which produced 50% inhibition of the ACAT enzyme.

Assay [3] has as its target T2, fatty acyl CoA: cholesterol acyl transferase (ACAT) (Rattus norvegicus, UniProt O70536).
T2 construct: The supernatant, containing the microsomal fraction, served as the source of the cholesterol-esterifying enzyme; from tissue; host or cells: rat adrenals, supernatant of 1,000 x g centrifugation containing the microsomal fraction
T2 sequence (O70536 1-545): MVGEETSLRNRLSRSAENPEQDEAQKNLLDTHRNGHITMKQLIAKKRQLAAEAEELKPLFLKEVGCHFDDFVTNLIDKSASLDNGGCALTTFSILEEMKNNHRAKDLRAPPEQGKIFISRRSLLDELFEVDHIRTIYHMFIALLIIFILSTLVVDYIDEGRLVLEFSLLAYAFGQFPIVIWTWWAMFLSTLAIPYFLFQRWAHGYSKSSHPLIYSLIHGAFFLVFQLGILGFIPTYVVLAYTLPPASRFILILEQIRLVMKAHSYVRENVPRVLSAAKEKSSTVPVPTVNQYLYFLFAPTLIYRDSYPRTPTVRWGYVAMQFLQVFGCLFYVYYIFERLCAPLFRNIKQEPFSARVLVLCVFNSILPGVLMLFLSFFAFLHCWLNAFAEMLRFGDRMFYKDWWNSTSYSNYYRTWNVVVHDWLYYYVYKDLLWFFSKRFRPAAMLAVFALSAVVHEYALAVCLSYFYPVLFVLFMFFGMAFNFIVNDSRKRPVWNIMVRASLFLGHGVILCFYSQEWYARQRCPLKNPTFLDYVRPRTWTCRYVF
Kind of assay: Inhibition of fatty acyl CoA:cholesterol acyl transferase (ACAT), rat adrenal enzyme. Type of assay: biochemical. In a few lines:
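Enzyme source was the microsomal supernatant of rat adrenal homogenate (0.2M potassium phosphate, pH 7.4) with BSA, preincubated with compound (5.2 μg/ml final for single-point) for 10 min at 37° C. Then [14C]oleoyl CoA added, 10 min at 37° C. TLC-separated cholesteryl ester was counted; percent inhibition versus control, IC50 from several concentrations.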

Setting [4] is: read-out: LS (liver sterol), percentage of control values.
The mark [5] stands for this setting: read-out: SS (serum sterol), percentage of control values.

One may read the pIC50 as −log10 of the IC50, conventionally taken in molar units. A low value points to a large IC50. Consider `CCCCCCCN(Cc1ccc(CC(C)C(C)CC)cc1)C(=O)Nc1c(C)cc(Cl)cc1C` (centres unmarked) [1-(n-Heptyl)-1-[4-(2,3-dimethylpentyl)benzyl]-3-(4-chloro-2,6-dimethylphenyl)urea], for which the response vs control in vivo at 0.01 % in assay [1] (setting [4]) turned out to be 40%; in assay [1] (setting [5]), 43%. The molecule also gave a pIC50 in assay [2] of 7.70.
On to `CCCCCCCN(Cc1ccc(CC[S+]([O-])C(C)C)cc1)C(=O)Nc1ccc(F)cc1F` (centres unmarked) [1-(n-Heptyl)-1-[4-(2-isopropylsulfinylethyl)benzyl]-3-(2,4-difluorophenyl)urea], for which, in assay [1] (setting [4]), the response vs control in vivo at 0.003 % stood at 84%. In assay [2], this molecule had a pIC50 of 6.66.
Take `CCCCCCCN(Cc1ccc(CCSC(C)C)cc1)C(=O)Nc1ccc(F)cc1F` [1-(n-Heptyl)-1-[4-(2-isopropylthioethyl)benzyl]-3-(2,4-difluorophenyl)urea]: in assay [1] (setting [4]), the response vs control in vivo at 0.003 % turned out to be 72%. This molecule gave a pIC50 in assay [2] of 6.68.
Consider `CCCCCCCN(Cc1ccc(CC2CCCC2)cc1)C(=O)Nc1ccc(F)cc1F` [1-(n-Heptyl)-1-[4-(4-cyclopentylmethyl)benzyl]-3-(2,4-difluorophenyl)urea], for which the response vs control in vivo at 0.01 % in assay [1] (setting [4]) worked out at 80%. In assay [2], this molecule had a negative-log IC50 (pIC50) of 6.85.
On to `CCCCCCCN(Cc1ccc(CCCCSC(C)C)cc1)C(=O)Nc1ccc(F)cc1F` [1-(n-Heptyl)-1-[4-(4-isopropylthiobutyl)benzyl]-3-(2,4-difluorophenyl)urea], for which the pIC50 in assay [2] was 5.49.
In the case of `CCCCCCCN(Cc1ccc(COC(C)=O)cc1)C(=O)Nc1ccc(F)cc1F` [1-(n-Heptyl)-1-[4-(acetoxymethyl)benzyl]-3-(2,4-difluorophenyl)urea], the response vs control in vivo at 0.01 % in assay [1] (setting [4]) is 70%. Further, in assay [2], the negative-log IC50 (pIC50) was 6.92.
In the case of `CCCCCCCN(Cc1ccc(CC(=O)OC)cc1)C(=O)Nc1ccc(F)cc1F` [1-(n-Heptyl)-1-[4-(carbomethoxymethyl)benzyl]-3-(2,4-difluorophenyl)urea], the negative-log IC50 (pIC50) in assay [2] is 5.76.
In assay [2], `CCCCCCCN(Cc1ccc(CC(=O)O)cc1)C(=O)Nc1ccc(F)cc1F` [1-(n-Heptyl)-1-[4-(carboxymethyl)benzyl]-3-(2,4-difluorophenyl)urea] showed a pIC50 of 4.62.
`CCCCCCCN(Cc1ccc(CO)cc1)C(=O)Nc1ccc(F)cc1F` [1-(n-Heptyl)-1-[4-(hydroxymethyl)benzyl]-3-(2,4-difluorophenyl)urea]: the response vs control in vivo at 0.003 % in assay [1] (setting [4]) was determined as 81%. Moreover, in assay [2], the negative-log IC50 (pIC50) was 6.70.
Take `CCCCCCCN(Cc1ccc(COCCC(C)C)cc1)C(=O)Nc1c(F)cc(F)cc1F` [1-(n-Heptyl)-1-[4-(isopentyloxymethyl)benzyl]-3-(2,4,6-trifluorophenyl)urea]: in assay [1] (dose .001% of the diet, read-out: LS (liver sterol), percentage of control values), the response vs control in vivo at 0.001 % amounted to 75%. The pIC50 in assay [2] is 6.74.
As to `CCCCCCCN(Cc1ccc(COCCC(C)C)cc1)C(=O)Nc1ccc(F)cc1F` [1-(n-Heptyl)-1-[4-(isopentyloxymethyl)benzyl]-3-(2,4-difluorophenyl)urea], the response vs control in vivo at 0.01 % in assay [1] (setting [4]) was 60%. In addition, in assay [2], the pIC50 was 6.48.
Usually inhibition stands for how much of the control response was suppressed. Take `CCCCc1ccc(CN(CCCCCCO)C(=O)Nc2cc(C)c(C)cc2C)cc1` [1-[(4-Butylphenyl)methyl]-1-(6-hydroxyhexyl)-3-(2,4,5-trimethylphenyl)urea]: the response vs control in vivo at 0.03 % came out at 39% in assay [1] (setting [4]) and 57% in assay [1] (setting [5]). In addition, the inhibition at 5.2 µg/mL in assay [3] worked out at 90%.
For `CCCCc1ccc(CN(CCCCCCO)C(=O)Nc2c(Cl)cc(Cl)cc2Cl)cc1` [1-[(4-Butylphenyl)methyl]-1-(6-hydroxyhexyl)-3-(2,4,6-trichlorophenyl)urea], the response vs control in vivo at 0.03 % in assay [1] (setting [4]) is 32%; in assay [1] (setting [5]), 35%. For the same molecule, in assay [3], at 5.2 µg/mL the inhibition was 90%.
In the case of `CCCCCCCN(Cc1ccc(CCCC)cc1)C(=O)Nc1ccc(F)cc1F` [1-[(4-Butylphenyl)methyl]-1-(n-heptyl)-3-[2,4-difluorophenyl]urea], the response vs control in vivo at 0.03 % came out at 19% in assay [1] (setting [4]) and 35% in assay [1] (setting [5]). The molecule further gave an inhibition at 5.2 µg/mL in assay [3] of 90%.
Regarding `CCCCc1ccc(CN(CCOCCO)C(=O)Nc2cc(C)c(C)cc2C)cc1` [1-[(4-Butylphenyl)methyl]-1-[2-(2-hydroxyethoxy)ethyl]-3-(2,4,5-trimethylphenyl)urea], the response vs control in vivo at 0.03 % is 76% in assay [1] (setting [4]) and 100% in assay [1] (setting [5]). The inhibition at 5.2 µg/mL in assay [3] (rat adrenal ACAT, final concentration 5.2 μg/ml, read-out: % Inhibition) was 85.9%.
As for `CCCCc1ccc(CN(CCCCC[Si](C)(C)C)C(=O)Nc2ccc(F)cc2F)cc1` [1-[(4-Butylphenyl)methyl]-3-(2,4-difluorophenyl)-1-[5-(trimethylsilyl)pentyl]urea], the response vs control in vivo at 0.03 % in assay [1] (setting [4]) was 57%; in assay [1] (setting [5]), 62%. In assay [3], this molecule came in with an inhibition at 5.2 µg/mL of 90%.
In the case of `CCCCc1ccc(CN(CCCCCCC#N)C(=O)Nc2ccc(Cl)cc2C)cc1` [1-[(4-Butylphenyl)methyl]-3-(4-chloro-2-methylphenyl)-1-(6-cyanohexyl)urea], the response vs control in vivo at 0.03 % was 50% in assay [1] (setting [4]) and 48% in assay [1] (setting [5]). The same molecule showed an inhibition at 5.2 µg/mL in assay [3] of 90%.
Regarding `CCCCc1ccc(CN(CCCCCCO)C(=O)Nc2ccc(Cl)cc2C)cc1` [1-[(4-Butylphenyl)methyl]-3-(4-chloro-2-methylphenyl)-1-(6-hydroxyhexyl)urea], the response vs control in vivo at 0.03 % in assay [1] (setting [4]) is 53%; in assay [1] (setting [5]) it was 6%. In assay [3], this molecule showed an inhibition at 5.2 µg/mL of 90%.
Regarding `CCCCc1ccc(CN(CCCCC[Si](C)(C)C)C(=O)Nc2ccc(Cl)cc2C)cc1` [1-[(4-Butylphenyl)methyl]-3-(4-chloro-2-methylphenyl)-1-[5-(trimethylsilyl)pentyl]urea], the response vs control in vivo at 0.03 % in assay [1] (setting [4]) was determined as 62%; in assay [1] (setting [5]), 50%. This molecule returned an inhibition at 5.2 µg/mL in assay [3] of 90%.
For `CC(C)(C)CCN(Cc1cccs1)C(=O)Nc1ccc(F)cc1F` [3-(2,4-Difluorophenyl)-1-(3,3-dimethylbutyl)-1-(2-thienylmethyl)urea], the response vs control in vivo at 0.03 % was found to be 73% in assay [1] (setting [4]) and 66% in assay [1] (setting [5]). For the same molecule, in assay [3], the inhibition at 5.2 µg/mL is 90%.
As to `Cc1cc(Cl)ccc1NC(=O)N(CCC(C)(C)C)Cc1cccs1` [3-(4-Chloro-2-methylphenyl)-1-(3,3-dimethylbutyl)-1-(2-thienylmethyl)urea], the response vs control in vivo at 0.03 % came to 64% in assay [1] (setting [4]) and 62% in assay [1] (setting [5]). The inhibition at 5.2 µg/mL in assay [3] was 90%.

Values taken from patent US4623662A, “Antiatherosclerotic ureas and thioureas” (American Cyanamid Company, priority 1985, dated 1986).
